# Patent publication US20230151003A1, “COMPOUNDS AND METHODS OF USE” (Exelixis, Inc., priority 2020, published 2023)
# Experiments:
# KDR = KDR (Homo sapiens, UniProt P35968); assay: KDR autophosphorylation ELISA in HUVEC cells; assay type: cell-based; set-up: endogenous in cells; host or cells: HUVEC (Lonza #C2519A); conditions: Table 3 Cellular Activities, VEGF165-stimulated, phospho-KDR ELISA
# Summary of the method: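 Phospho-KDR levels in lysates were measured by ELISA and referenced to stimulated-vehicle (100%) and unstimulated (0%) wells, IC50 from 4-parameter logistic fit. HUVEC, starved 24 h in serum-free medium, received an 8-point compound series (0.3% DMSO) for 1 h before a 5 min 100 ng/mL VEGF165 challenge.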
# Met = Met (Homo sapiens, UniProt P08581); assay: Met autophosphorylation ELISA in PC-3 cells; assay type: cell-based; set-up: endogenous in cells; host or cells: PC-3 prostate cancer cells (ATCC #CRL-1435); conditions: Table 3 Cellular Activities, HGF-stimulated, phospho-Met ELISA, read-out: c-Met IC50
# Summary of the method: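 Serum-starved (3 h) PC-3 cells pre-incubated 1 h with compound (8-point dose curve, 0.3% DMSO), then stimulated with 100 ng/mL recombinant human HGF for 10 min. Lysate phospho-Met (panTyr) measured by sandwich ELISA; IC50 from 4-parameter logistic fit, normalised to DMSO (100%) and reference-inhibitor (0%) controls.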
# KDR, sequence (P35968 20-1356): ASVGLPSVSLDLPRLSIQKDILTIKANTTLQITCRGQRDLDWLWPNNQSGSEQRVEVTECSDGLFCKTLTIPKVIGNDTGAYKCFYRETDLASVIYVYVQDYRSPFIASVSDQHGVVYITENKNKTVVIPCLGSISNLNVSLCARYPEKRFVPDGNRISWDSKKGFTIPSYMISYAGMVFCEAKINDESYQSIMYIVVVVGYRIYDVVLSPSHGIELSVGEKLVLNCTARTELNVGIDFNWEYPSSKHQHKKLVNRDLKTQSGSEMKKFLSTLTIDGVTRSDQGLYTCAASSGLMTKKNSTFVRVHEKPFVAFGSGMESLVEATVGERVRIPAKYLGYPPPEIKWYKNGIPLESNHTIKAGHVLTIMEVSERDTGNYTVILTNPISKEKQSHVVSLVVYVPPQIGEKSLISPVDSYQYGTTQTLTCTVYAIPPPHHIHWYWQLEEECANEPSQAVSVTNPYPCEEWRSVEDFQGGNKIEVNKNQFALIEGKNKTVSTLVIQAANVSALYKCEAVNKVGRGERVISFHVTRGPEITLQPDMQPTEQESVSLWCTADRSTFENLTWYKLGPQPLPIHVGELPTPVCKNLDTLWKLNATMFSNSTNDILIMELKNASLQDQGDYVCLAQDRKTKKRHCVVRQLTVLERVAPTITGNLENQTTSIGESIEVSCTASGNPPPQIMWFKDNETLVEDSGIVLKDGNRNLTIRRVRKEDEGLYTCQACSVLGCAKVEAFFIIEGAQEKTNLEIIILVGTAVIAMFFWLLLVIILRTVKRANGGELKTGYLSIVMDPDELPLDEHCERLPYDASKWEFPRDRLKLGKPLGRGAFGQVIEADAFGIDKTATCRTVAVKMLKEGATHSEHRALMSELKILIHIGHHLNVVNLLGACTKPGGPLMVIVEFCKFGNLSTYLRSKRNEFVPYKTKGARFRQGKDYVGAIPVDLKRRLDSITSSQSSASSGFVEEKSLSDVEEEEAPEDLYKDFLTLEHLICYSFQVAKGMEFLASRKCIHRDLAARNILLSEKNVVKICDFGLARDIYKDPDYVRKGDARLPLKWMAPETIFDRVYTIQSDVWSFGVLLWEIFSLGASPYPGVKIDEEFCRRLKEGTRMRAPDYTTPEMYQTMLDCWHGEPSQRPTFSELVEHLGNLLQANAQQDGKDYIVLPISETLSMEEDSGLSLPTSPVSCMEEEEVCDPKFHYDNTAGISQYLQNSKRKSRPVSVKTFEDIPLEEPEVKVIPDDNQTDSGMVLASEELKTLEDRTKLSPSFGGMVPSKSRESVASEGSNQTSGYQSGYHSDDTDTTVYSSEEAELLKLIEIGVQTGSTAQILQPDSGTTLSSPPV
# Met, sequence (P08581 25-1390): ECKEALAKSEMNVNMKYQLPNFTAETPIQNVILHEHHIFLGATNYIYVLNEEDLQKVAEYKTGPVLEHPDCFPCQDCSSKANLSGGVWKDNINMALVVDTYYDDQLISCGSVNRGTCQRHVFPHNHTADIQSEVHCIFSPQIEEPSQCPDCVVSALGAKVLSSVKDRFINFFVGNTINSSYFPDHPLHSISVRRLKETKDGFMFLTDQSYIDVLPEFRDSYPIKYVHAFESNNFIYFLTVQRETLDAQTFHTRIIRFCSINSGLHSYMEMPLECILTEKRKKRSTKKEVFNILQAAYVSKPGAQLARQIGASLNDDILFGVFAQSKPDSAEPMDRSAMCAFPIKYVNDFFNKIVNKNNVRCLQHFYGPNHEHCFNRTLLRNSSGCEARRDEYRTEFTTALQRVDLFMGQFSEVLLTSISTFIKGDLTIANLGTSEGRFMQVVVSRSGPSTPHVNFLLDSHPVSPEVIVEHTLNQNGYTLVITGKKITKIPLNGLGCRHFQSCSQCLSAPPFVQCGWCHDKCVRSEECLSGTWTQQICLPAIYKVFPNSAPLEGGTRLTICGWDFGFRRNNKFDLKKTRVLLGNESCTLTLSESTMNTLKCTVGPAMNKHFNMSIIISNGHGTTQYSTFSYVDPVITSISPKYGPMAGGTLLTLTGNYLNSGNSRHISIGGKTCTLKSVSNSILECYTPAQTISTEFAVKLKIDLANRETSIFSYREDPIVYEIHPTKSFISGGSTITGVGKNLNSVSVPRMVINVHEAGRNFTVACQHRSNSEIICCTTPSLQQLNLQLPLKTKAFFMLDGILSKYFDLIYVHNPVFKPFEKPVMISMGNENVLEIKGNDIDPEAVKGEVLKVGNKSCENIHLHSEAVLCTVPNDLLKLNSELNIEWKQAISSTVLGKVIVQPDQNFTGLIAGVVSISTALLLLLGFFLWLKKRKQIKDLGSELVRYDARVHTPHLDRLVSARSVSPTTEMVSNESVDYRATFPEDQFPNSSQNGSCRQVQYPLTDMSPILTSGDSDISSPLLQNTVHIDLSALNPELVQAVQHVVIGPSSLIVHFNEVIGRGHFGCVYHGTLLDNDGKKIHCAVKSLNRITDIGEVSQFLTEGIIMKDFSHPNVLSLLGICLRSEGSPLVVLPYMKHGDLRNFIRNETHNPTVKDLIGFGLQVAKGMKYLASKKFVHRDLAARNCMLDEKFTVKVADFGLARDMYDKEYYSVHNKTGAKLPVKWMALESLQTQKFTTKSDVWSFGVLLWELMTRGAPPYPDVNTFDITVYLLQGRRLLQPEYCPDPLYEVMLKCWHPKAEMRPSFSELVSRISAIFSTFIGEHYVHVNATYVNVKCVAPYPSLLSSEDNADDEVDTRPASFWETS
Structure (SMILES),IC50 (KDR) [nM],IC50 (Met) [nM]
"COCCOc1cc2nccc(Oc3ccc(NC(=O)c4cnc(C)c(-c5ccco5)c4O)cc3F)c2nc1OC [Compound 260, N-[3-Fluoro-4-[[6-methoxy-7-(2-methoxyethoxy)-1,5-naphthyridin-4-yl]oxy]phenyl]-5-(furan-2-yl)-4-hydroxy-6-methylpyridine-3-carboxamide]",≤ 100,≤ 100
"COc1cc2nccc(Oc3ccc(NC(=O)c4c5n(cc(-c6ccco6)c4=O)CCOC5)cc3F)c2nc1OC [Compound 297, N-[4-[(6,7-Dimethoxy-1,5-naphthyridin-4-yl)oxy]-3-fluorophenyl]-7-(furan-2-yl)-8-oxo-3,4-dihydro-1H-pyrido[2,1-c][1,4]oxazine-9-carboxamide]",300 to 1000,≤ 100
"COc1cc2nccc(Oc3ccc(NC(=O)c4c5n(c(C)c(-c6ccsc6)c4=O)CCOC5)cc3F)c2nc1OC [Compound 307, N-[4-[(6,7-Dimethoxy-1,5-naphthyridin-4-yl)oxy]-3-fluorophenyl]-6-methyl-8-oxo-7-thiophen-3-yl-3,4-dihydro-1H-pyrido[2,1-c][1,4]oxazine-9-carboxamide]",100 to 300,≤ 100
"COc1cc2nccc(Oc3ccc(NC(=O)c4ccc(C)n(-c5ccncc5F)c4=O)cc3F)c2nc1OC [Compound 220, N-[4-[(6,7-Dimethoxy-1,5-naphthyridin-4-yl)oxy]-3-fluorophenyl]-1-(3-fluoropyridin-4-yl)-6-methyl-2-oxopyridine-3-carboxamide]",≤ 100,≤ 100
"COCc1nc(C)c(-c2ccc(F)cn2)c(O)c1C(=O)Nc1ccc(Oc2ccnc3cc(OC)c(OC)nc23)c(F)c1 [Compound 214, N-[4-[(6,7-Dimethoxy-1,5-naphthyridin-4-yl)oxy]-3-fluorophenyl]-5-(5-fluoropyridin-2-yl)-4-hydroxy-2-(methoxymethyl)-6-methylpyridine-3-carboxamid]",≤ 100,≤ 100

# Continued, values first:
IC50 (KDR) [nM],IC50 (Met) [nM],Structure (SMILES)
300 to 1000,≤ 100,"Cc1ccc(C(=O)Nc2ccc(Oc3ccnc4cccnc34)c(F)c2)c(=O)n1-c1ccc(F)cn1 [Compound 48, N-[3-Fluoro-4-(1,5-naphthyridin-4-yloxy)phenyl]-1-(5-fluoropyridin-2-yl)-6-methyl-2-oxopyridine-3-carboxamide]"
≤ 100,≤ 100,"COc1cc2nccc(Oc3ccc(NC(=O)c4cccn(-c5ccncc5)c4=O)cc3F)c2nc1OC [Compound 229, N-[4-[(6,7-Dimethoxy-1,5-naphthyridin-4-yl)oxy]-3-fluorophenyl]-2-oxo-1-pyridin-4-ylpyridine-3-carboxamide]"
≤ 100,≤ 100,"COc1cc2nccc(Oc3ccc(NC(=O)c4c(C)ncc(-c5ccc(F)cn5)c4O)cc3F)c2nc1OC [Compound 68, N-[4-[(6,7-Dimethoxy-1,5-naphthyridin-4-yl)oxy]-3-fluorophenyl]-5-(5-fluoropyridin-2-yl)-4-hydroxy-2-methylpyridine-3-carboxamide]"
≤ 100,≤ 100,"COc1cc2nccc(Oc3ccc(NC(=O)c4ccc(C)n(-c5ccnc(C)c5)c4=O)cc3F)c2nc1OC [Compound 230, N-[4-[(6,7-Dimethoxy-1,5-naphthyridin-4-yl)oxy]-3-fluorophenyl]-6-methyl-1-(2-methylpyridin-4-yl)-2-oxopyridine-3-carboxamide]"
300 to 1000,≤ 100,"COc1cc2nccc(Oc3ccc(NC(=O)c4c5n(cc(-c6cccs6)c4=O)CCOC5)cc3)c2nc1OC [Compound 299, N-[4-[(6,7-Dimethoxy-1,5-naphthyridin-4-yl)oxy]phenyl]-8-oxo-7-thiophen-2-yl-3,4-dihydro-1H-pyrido[2,1-c][1,4]oxazine-9-carboxamide]"
300 to 1000,≤ 100,"COc1cc2nccc(Oc3ccc(NC(=O)c4cc(C#N)c(C)n(-c5ccc(F)cn5)c4=O)cc3F)c2nc1OC [Compound 56, 5-Cyano-N-[4-[(6,7-dimethoxy-1,5-naphthyridin-4-yl)oxy]-3-fluorophenyl]-1-(5-fluoropyridin-2-yl)-6-methyl-2-oxopyridine-3-carboxamide]"
